Assays:
[1] = species: Rattus norvegicus; assay: Displacement of [35S]TBPS from GABAA receptor in Wistar rat cerebral cortex membranes after 3 hrs by scintillation counting method; details: Membrane
[2] = species: Rattus norvegicus; assay: Displacement of [35S]TBPS from GABAA receptor in Wistar rat cerebral cortex membranes at 10 uM after 3 hrs by scintillation counting method; details: Membrane
[3] = species: Rattus norvegicus; assay: Displacement of [35S]TBPS from GABAA receptor in Wistar rat cerebral cortex membranes at 1 uM after 3 hrs by scintillation counting method; details: Membrane
[4] = system: Rattus norvegicus; assay: Half life in Sprague-Dawley rat at 1 mg/kg, iv by LC-MS/MS analysis; format: ADME, organism-based; details: in vivo
[5] = Volume of distribution at steady state in Sprague-Dawley rat at 1 mg/kg, iv by LC-MS/MS analysis; format: ADME, organism-based; details: in vivo, read-out: Vdss
[6] = Clearance in Sprague-Dawley rat at 1 mg/kg, iv by LC-MS/MS analysis; format: ADME, organism-based; details: in vivo
[7] = system: Rattus norvegicus; assay: Cmax in Sprague-Dawley rat at 1 mg/kg, iv by LC-MS/MS analysis; format: ADME, organism-based; set-up: dose 1 mg/kg, route intravenous; details: in vivo
[8] = system: Mus musculus; assay: Anesthetic activity in iv dosed ICR mouse assessed as onset time for loss of righting reflex administered 7 to 8 doses at 10 secs for each dose; format: functional
[9] = system: Mus musculus; assay: Anesthetic activity in iv dosed ICR mouse assessed as anesthetic duration time administered 7 to 8 doses at 10 secs for each dose; format: functional
[10] = system: Mus musculus; assay: Anesthetic activity in iv dosed ICR mouse assessed as recovery time of righting reflex by measuring the ability to grip and climb a steel frame and ambulated normally administered 7 to 8 doses at 10 secs for each dose; format: functional
[11] = system: Mus musculus; assay: Anesthetic activity in iv dosed ICR mouse assessed as dose required to produce 10 min of anesthesia administered 7 to 8 doses at 10 secs for each dose; format: functional
[12] = species: Rattus norvegicus; details: in vivo, iv, 1 mg/kg
[13] = system: Mus musculus; assay: Anesthetic activity in mouse model assessed as loss of righting reflex; format: functional
[14] = Therapeutic index, ratio of LD50 for toxicity in mouse to ED50 for anesthetic effect in mouse
[15] = system: Mus musculus; assay: Anesthetic activity in iv dosed ICR mouse assessed as loss of righting reflex administered 7 to 8 doses at 10 secs for each dose; format: functional
[16] = Toxicity in iv dosed ICR mouse administered 7 to 8 doses at 10 secs for each dose; format: organism-based; details: in vivo
[17] = Toxicity in mouse; format: organism-based; details: in vivo

SMILES: C[C@@H](c1cccc([C@H](C)C2CC2)c1O)C1CC1
- inhibition [1]: Dose-dependent effect
- inhibition [2]: 96%
- inhibition [3]: 64%
- t1/2 [4]: 31 min
- Vd [5]: 1.92 L/kg
- clearance [6]: 5.7 L/h/kg
- Cmax [7]: 0.713 µg/mL
- Time [8]: <10 s
- Time [9]: 318.43 s
- Time [10]: 61.67 s
- Activity [11]: 5 mg/kg
- AUCt [12]: 0.17 µg·h/mL

SMILES: C[C@H](c1cccc([C@@H](C)C2CC2)c1OCOP(=O)([O-])[O-])C1CC1.[Na+].[Na+]
- ED50 [13]: 94.7 mg/kg
- Ratio LD50/ED50 [14]: 2.9

SMILES: CC(C)c1cccc([C@H](C)C2CCC2)c1O
- Time [8]: <10 s
- Time [9]: 443.5 s
- Time [10]: 89.11 s

SMILES: CC(C)c1cccc([C@@H](C)C2CC2)c1OCOP(=O)([O-])[O-].[Na+].[Na+]
- ED50 [13]: 82.7 mg/kg
- Ratio LD50/ED50 [14]: 4.5

SMILES: CCC(c1cccc(C(C)C2CC2)c1O)C1CC1 (racemic)
- Time [8]: 7.5 s
- Time [9]: 670.13 s
- Time [10]: 205.8 s
- ED50 [15]: 9 mg/kg
- LD50 at 10 s [16]: 74.7 mg/kg
- Activity [11]: 20 mg/kg

SMILES: Cc1cccc(C(C)C2CC2)c1O (racemic)
- Time [8]: <10 s
- Time [9]: 198.33 s
- Time [10]: 122 s
- ED50 [15]: 7.4 mg/kg
- LD50 at 10 s [16]: 54.9 mg/kg

SMILES: CC(c1cccc(C(C2CC2)C2CC2)c1O)C1CC1 (racemic)
- Time [8]: <10 s
- Time [9]: 761.33 s
- Time [10]: 326.5 s
- ED50 [15]: 9.8 mg/kg
- LD50 at 10 s [16]: 98.2 mg/kg
- Activity [11]: 20 mg/kg

SMILES: CC(C)c1cccc(C(C)C2CCC2)c1O (racemic)
- Time [8]: 43.5 s
- Time [9]: 364 s
- Time [10]: 46 s
- LD50 at 10 s [16]: 40 mg/kg

SMILES: CC[C@@H](C)c1cccc([C@@H](C)C2CC2)c1O
- inhibition [1]: Dose-dependent effect
- inhibition [2]: 63%
- inhibition [3]: -1%
- Time [8]: <10 s
- Time [9]: 418 s
- Time [10]: 192.33 s
- ED50 [15]: 1.3 mg/kg
- LD50 at 10 s [16]: 8.3 mg/kg
- Activity [11]: 4 mg/kg

SMILES: CC[C@H](C)c1cccc([C@H](C)C2CC2)c1OCOP(=O)([O-])[O-].[Na+].[Na+]
- ED50 [13]: 24.3 mg/kg
- LD50 [17]: 91.8 mg/kg
- Ratio LD50/ED50 [14]: 3.8

SMILES: CC(C)c1cccc(C(C)C)c1O [PROPOFOL]
- inhibition [1]: Dose-dependent effect
- inhibition [2]: 10%
- Vd [5]: 5.23 L/kg
- Cmax [7]: 0.384 µg/mL
- Time [8]: <10 s
- Time [9]: 303.2 s
- Time [10]: 50 s
- Activity [11]: 25 mg/kg
- AUCt [12]: 0.0769 µg·h/mL

SMILES: CC(C)c1cccc(C(C2CC2)C2CC2)c1O
- Time [8]: <10 s
- Time [9]: 2616.4 s
- Time [10]: 220.17 s
- LD50 at 10 s [16]: > 100 mg/kg
- Activity [11]: 50 mg/kg

SMILES: CC[C@@H](C)c1cccc([C@H](C)C2CC2)c1O
- inhibition [1]: Dose-dependent effect
- inhibition [2]: 87%
- inhibition [3]: 23%
- t1/2 [4]: 22 min
- Vd [5]: 3.23 L/kg
- clearance [6]: 12.5 L/h/kg
- Cmax [7]: 0.575 µg/mL
- Time [8]: <10 s
- Time [9]: 471.88 s
- Time [10]: 391.29 s
- ED50 [15]: 2 mg/kg
- LD50 at 10 s [16]: 14.3 mg/kg
- Activity [11]: 7.5 mg/kg
- AUCt [12]: 0.0781 µg·h/mL

SMILES: C[C@H](c1cccc([C@H](C)C2CC2)c1OCOP(=O)([O-])[O-])C1CC1.[Na+].[Na+]
- ED50 [13]: 35.8 mg/kg
- Ratio LD50/ED50 [14]: 4

SMILES: CCc1cccc(C(C)C2CC2)c1O (racemic)
- Time [8]: <10 s
- Time [9]: 409.57 s
- Time [10]: 226.57 s
- ED50 [15]: 7.7 mg/kg
- LD50 at 10 s [16]: 57.1 mg/kg

SMILES: COc1cccc(C(C)C2CC2)c1O (racemic)
- Time [8]: <10 s
- Time [9]: 364.14 s
- Time [10]: 79 s
- ED50 [15]: 7.4 mg/kg

SMILES: CC[C@H](C)c1cccc([C@@H](C)C2CC2)c1O
- inhibition [1]: Dose-dependent effect
- inhibition [2]: 47%
- inhibition [3]: 5%
- Time [8]: <10 s
- Time [9]: 643.4 s
- Time [10]: 224 s
- Activity [11]: 10 mg/kg

SMILES: C[C@H](c1cccc([C@@H](C)C2CC2)c1O)C1CC1
- inhibition [1]: Dose-dependent effect
- inhibition [2]: 35%
- Time [8]: 7 s
- Time [9]: 567.33 s
- Time [10]: 150.8 s
- ED50 [15]: 19.5 mg/kg
- LD50 at 10 s [16]: 149 mg/kg
- Activity [11]: 40 mg/kg

SMILES: CCC(C)c1cccc(C(C)C2CC2)c1O (racemic)
- inhibition [1]: Dose-dependent effect
- inhibition [2]: 74%
- inhibition [3]: -3%
- Time [8]: <10 s
- Time [9]: 418.14 s
- Time [10]: 130.71 s
- Activity [11]: 20 mg/kg

SMILES: CC(c1cccc(C(C)C2CC2)c1O)C1CC1 (racemic)
- inhibition [1]: Dose-dependent effect
- inhibition [2]: 91%
- inhibition [3]: 13%
- Time [8]: <10 s
- Time [9]: 563.63 s
- Time [10]: 233.83 s
- LD50 at 10 s [16]: > 15 mg/kg

SMILES: CC(c1cccc(C2CC2)c1O)C1CC1 (racemic)
- Time [8]: <10 s
- Time [9]: 500.67 s
- Time [10]: 193.63 s
- ED50 [15]: 14.6 mg/kg
- LD50 at 10 s [16]: 80 mg/kg

SMILES: C[C@H](c1cccc([C@H](C)C2CC2)c1O)C1CC1
- inhibition [1]: Dose-dependent effect
- inhibition [2]: 78%
- inhibition [3]: -5%
- Time [8]: <10 s
- Time [9]: 492.17 s
- Time [10]: 24.5 s
- ED50 [15]: 5.9 mg/kg
- LD50 at 10 s [16]: 43.6 mg/kg
- Activity [11]: 20 mg/kg

SMILES: CC(C)c1cccc([C@H](C)C2CC2)c1O [CIPEPOFOL]
- inhibition [1]: Dose-dependent effect
- inhibition [2]: 85%
- inhibition [3]: 34%
- t1/2 [4]: 28 min
- Vd [5]: 2.02 L/kg
- clearance [6]: 6 L/h/kg
- Cmax [7]: 0.834 µg/mL
- Time [8]: 21.86 s
- Time [9]: 313.43 s
- Time [10]: 64.8 s
- Activity [11]: 4.8 mg/kg
- AUCt [12]: 0.164 µg·h/mL

SMILES: CC(C)c1cccc([C@@H](C)C2CCC2)c1O
- Time [8]: 15.63 s
- Time [9]: 450.43 s
- Time [10]: 191.8 s
- LD50 at 10 s [16]: 107 mg/kg
- Activity [11]: 100 mg/kg

SMILES: CC(c1cccc(C2(C)CC2)c1O)C1CC1 (racemic)
- Time [8]: 9.5 s
- Time [9]: 365.75 s
- Time [10]: 306.13 s
- LD50 at 10 s [16]: 40 mg/kg
- Activity [11]: 45 mg/kg

SMILES: CC[C@@H](C)c1cccc([C@H](C)CC)c1O
- inhibition [1]: Dose-dependent effect
- inhibition [2]: 29%
- inhibition [3]: 0%
- Time [8]: 18 s
- Time [9]: 459.83 s
- Time [10]: 39.83 s
- ED50 [15]: 2.69 mg/kg
- LD50 at 10 s [16]: 23.8 mg/kg
- Activity [11]: 10 mg/kg

SMILES: CCC(c1cccc(C(C)C)c1O)C1CC1 (racemic)
- Time [8]: 13.6 s
- Time [9]: 523.57 s
- Time [10]: 50.38 s
- ED50 [15]: 6.2 mg/kg
- LD50 at 10 s [16]: 53.2 mg/kg

SMILES: CC(C)c1cccc(C(C)C2CC2)c1O (racemic)
- inhibition [1]: Dose-dependent effect
- inhibition [2]: 3%
- Time [8]: <10 s
- Time [9]: 518.5 s
- Time [10]: 78 s
- Activity [11]: 10 mg/kg

SMILES: CC[C@@H](C)c1cccc([C@H](C)C2CC2)c1OCOP(=O)([O-])[O-].[Na+].[Na+]
- ED50 [13]: 15.9 mg/kg
- LD50 [17]: 63.7 mg/kg
- Ratio LD50/ED50 [14]: 4

SMILES: CC(c1ccccc1O)C1CC1 (racemic)
- Time [8]: <10 s
- Time [9]: 598 s
- Time [10]: 329.6 s
- ED50 [15]: 14 mg/kg
- LD50 at 10 s [16]: 64.8 mg/kg
- Activity [11]: 30 mg/kg

SMILES: CC[C@H](C)c1cccc([C@H](C)C2CC2)c1O
- inhibition [1]: Dose-dependent effect
- inhibition [2]: 34%
- inhibition [3]: -9%
- Time [8]: <10 s
- Time [9]: 545 s
- Time [10]: 363.67 s
- LD50 at 10 s [16]: 65.4 mg/kg
- Activity [11]: 20 mg/kg

SMILES: CC(C)c1cccc(C(C)C2CCCC2)c1O (racemic)
- Time [8]: 5 s
- Time [9]: 737.33 s
- Time [10]: 441.6 s
- ED50 [15]: 19.9 mg/kg
- LD50 at 10 s [16]: 115 mg/kg
- Activity [11]: 40 mg/kg

SMILES: CC(C)c1cccc([C@@H](C)C2CC2)c1O
- inhibition [1]: Dose-dependent effect
- inhibition [2]: 9%
- inhibition [3]: 3%
- Time [8]: 5.71 s
- Time [9]: 344 s
- Time [10]: 168.33 s
- ED50 [15]: 7.9 mg/kg
- LD50 at 10 s [16]: 50 mg/kg
- Activity [11]: 30 mg/kg

— ChEMBL document CHEMBL4043087 (J Med Chem, 2017)
